Entries after “also recorded” stand apart in the source; their conditions may differ. Like-named read-outs stand apart in the source and are kept apart here.

The nature of series [1]: Peracetic acid concentration in aqueous solution over time, Lamotte peracetic acid test kit (code 7191-01). Type of series: physicochemical. As to conditions: with or without copper hydroxide / metal ions. From the text:
Those skilled in the art know how to monitor levels of peracetic in solutions. For instance, it is known to use iodometric titration (F. P. Greenspan and D. G. MacKellar, 1948, Anal. Chem., 20, 1061) or to use analytical test strips. Suitable test strips include those manufactured by Merck and which are currently available under two different formats (i.e. 5-50 ppm and 100-500 ppm). These test strips provide a rapid, convenient semi-quantitative method of determining peracetic levels. LaMotte Company (Chestertown, Md., USA) also provides a test kit (code 7191-01) for titrating peracetic acid.
Peracetic acid was generated by admixing with water a powdered product which is hereinafter called ATO CIDE. More particularly, 2 grams of the powdered product identified hereinafter under the name ATO CIDE was added and mixed for 10 minutes with in 1 liter of water, to give a solution of 2 g/L ATO CIDE. ATO CIDE is a powdered mixture consisting of:
Then, 100 mL of the above-mentioned solution of peracetic acid (i.e ATO CIDE solution) was mixed for 5 minutes with 0.1 g of a powdered product sold under the trademark PARASOL WG®. PARASOL WG® is a powdered product comprising 50% elemental copper as copper hydroxide.
Then, a 100 mL of the above-mentioned solution of peracetic acid (i.e ATO CIDE solution) was mixed for 5 minutes 0.2 mL of a complexing agent (PBTCA) until the sequestering agent was dissolved completely, and then 0.1 g of a powdered product sold under the trademark PARASOL WG® is added and dissolved with the resulting mixture. PARASOL WG® is a powdered product comprising 50% elemental copper as copper hydroxide.
Then mixtures were prepared as per below table:
(§1) Then mixtures #1 to #5 were prepared as per below table:
(§2) Mixtures were prepared at room temperature (around 20° C.) as per the following table: […]

Series [2] relates to strawberry. In words: Phytotoxicity to strawberry (statement). As to conditions: applied individually to strawberry; stated, no data shown.
Series [3] can be described thus: pH of the mixtures over time. It counts as physicochemical. Particulars: Trt 1 pH (0.1%). Here is the method:
as §1, §2

In series [4] the test system is strawberry. As to conditions: in vivo.

With `OB(O)O` [Boric acid, boric acid], the “effect on stability of peracetic acid (conclusion in words)” value (shortened to “effect on stability of peracetic acid”) in series [1] is on record as “stabilizes PERACETIC ACID in solution for a longer period of time; also recorded: not as good as phosphoric acid in chelating copper hydroxide”.

As for `O=P(O)(O)O` [Phosphoric acid, phosphoric acid], the entries for the “effect on stability of peracetic acid” value in series [1] and in series [1] (listed as phosphoric acid) were “prevented peracetic acid from being decomposed” and “prevented the decomposition of peracetic acid by metal ions”, respectively.

Regarding `OP(O)O` [Phosphorous acid, phosphorous acid], the “effect on stability of peracetic acid” value in series [1] was “stabilizes the peracetic acid very well”. Moreover, the phytotoxicity result in the series with strawberry [2] is on record as “phytotoxic”.

For `NS(=O)(=O)O` [Sulfamic acid, sulfamic acid], the “effect on stability of peracetic acid” value in series [1] is “prevented peracetic acid from being decomposed”.

Regarding `OP(O)O` [Trt 1, Phosphorous acid], the pH in series [3] (Example 15, 24 hrs, Trt 2 pH (0.2%)) is recorded as 2.53; in series [3] (Example 15, 48 hrs, Trt 2 pH (0.2%)), 2.80; in series [3] (Example 15, 120 hrs, Trt 2 pH (0.2%)), 2.90; in series [3] (Example 15, 148 hrs, Trt 2 pH (0.2%)) it was 2.85; in series [3] (Example 15, 172 hrs, Trt 2 pH (0.2%)), 2.80; in series [3] (Example 15, room temperature, Time zero (Trt 3-5: after the additions)), 2.80.

copper: in the series with strawberry [4], the phytotoxicity entry is given as “phytotoxic”.

(Values after patent publication US20160286800A1, “STABILIZED COMPOSITION OF AN OXIDIZER AND METAL IONS, METHOD AND USE FOR IMPROVING DISEASE CONTROL, AND KIT FOR PREPARING SAID COMPOSITION” (AGRI-NÉO INC., priority 2013, published 2016).)
